Assay results reported in patent US10978281B2, “Method to obtain unbiased identification of interaction of test compounds with the proteome” (Institute for Systems Biology, priority 2015, dated 2021).

How the values were obtained:
Rv0289/EspG3 = Rv0289/EspG3 (Mycobacterium tuberculosis, UniProt P9WJC7)
DHFR (Rv2763c) = DHFR (Rv2763c) (Mycobacterium tuberculosis, UniProt P9WNX1); assay type: binding; conditions: melting curve, M. tuberculosis lysate; Tm of DHFR without P218 is 57° C.
DHFR (Rv2763c), sequence (P9WNX1 whole entry): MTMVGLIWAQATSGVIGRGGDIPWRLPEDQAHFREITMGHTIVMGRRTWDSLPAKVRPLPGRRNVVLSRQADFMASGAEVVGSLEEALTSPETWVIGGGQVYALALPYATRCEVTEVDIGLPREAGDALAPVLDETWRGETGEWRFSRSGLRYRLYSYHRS

Rv0289/EspG3, sequence (P9WJC7 whole entry): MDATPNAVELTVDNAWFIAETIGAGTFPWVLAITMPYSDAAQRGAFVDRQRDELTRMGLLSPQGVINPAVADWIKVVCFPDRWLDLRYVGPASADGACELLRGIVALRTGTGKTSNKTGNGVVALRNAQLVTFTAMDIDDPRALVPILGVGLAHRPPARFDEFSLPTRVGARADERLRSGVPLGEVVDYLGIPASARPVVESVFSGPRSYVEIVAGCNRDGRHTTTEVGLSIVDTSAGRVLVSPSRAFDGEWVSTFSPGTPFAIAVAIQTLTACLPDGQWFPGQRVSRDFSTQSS

CCc1nc(N)nc(N)c1OCCCOc1ccccc1CCC(=O)O [P218]
difference in the Tm values in the presence and absence of compound (Rv0289/EspG3): no difference | temperature at the inflection point (Tm) of DHFR in the presence of P218 (DHFR (Rv2763c)): 60.9 °C
